Results reported in ChEMBL document CHEMBL6120941, “Discovery of SIRT1-Activating Hydrogen Sulfide Donating Derivatives for Efficient Resistant of Myocardial Ischemic Injury” (J Med Chem, 2024).
The source made the active and inactive calls. The rule behind the calls is not given here.

Assays:
[1] = system: H9c2; assay: Cardioprotective activity against CoCl2-induced cellular hypoxia injury in rat H9c2 cells assessed as increase in cell viability at 30 uM incubated for 24 hrs by CCK-8 assay; type: functional, cell-based
[2] = system: H9c2; assay: Cardioprotective activity against CoCl2-induced cellular hypoxia injury in rat H9c2 cells assessed as cell viability at 0.625 uM incubated for 24 hrs by CCK-8 assay (reference value: 51.80 +/- 2.58 %); type: functional; settings: read-out: Activity
[3] = system: H9c2; assay: Cardioprotective activity against CoCl2-induced cellular hypoxia injury in rat H9c2 cells assessed as cell viability at 1.25 uM incubated for 24 hrs by CCK-8 assay (reference value: 51.80 +/- 2.58 %); type: functional; settings: read-out: Activity
[4] = system: H9c2; assay: Cardioprotective activity against CoCl2-induced cellular hypoxia injury in rat H9c2 cells assessed as cell viability at 2.5 uM incubated for 24 hrs by CCK-8 assay (reference value: 51.80 +/- 2.58 %); type: functional; settings: read-out: Activity
[5] = system: H9c2; assay: Cardioprotective activity against CoCl2-induced cellular hypoxia injury in rat H9c2 cells assessed as cell viability at 5 uM incubated for 24 hrs by CCK-8 assay (reference value: 51.80 +/- 2.58 %); type: functional; settings: read-out: Activity
[6] = system: H9c2; assay: Cardioprotective activity against CoCl2-induced cellular hypoxia injury in rat H9c2 cells assessed as cell viability at 10 uM incubated for 24 hrs by CCK-8 assay (reference value: 51.80 +/- 2.58 %); type: functional; settings: read-out: Activity
[7] = Induction of H2S release in PBS at pH 7.4 at 100 uM measured upto 60 mins by methylene blue method; type: functional
[8] = Induction of H2S release in PBS at pH 7.4 measured upto 60 mins by methylene blue method; type: functional
[9] = system: H9c2; assay: Induction of H2S release in rat H9c2 cells incubated for 24 hrs by AzMC probe based analysis; type: functional, cell-based; settings: dose 1.25-10 µM
[10] = target: T1, NAD-dependent protein deacetylase sirtuin-1 (Homo sapiens) (UniProt Q96EB6); assay: Activation of SIRT1 (unknown origin) using RHKK-ac-AMC as substrate incubated for 2 hrs by FDL assay relative to control; settings: filed as activator
T1 sequence (whole entry): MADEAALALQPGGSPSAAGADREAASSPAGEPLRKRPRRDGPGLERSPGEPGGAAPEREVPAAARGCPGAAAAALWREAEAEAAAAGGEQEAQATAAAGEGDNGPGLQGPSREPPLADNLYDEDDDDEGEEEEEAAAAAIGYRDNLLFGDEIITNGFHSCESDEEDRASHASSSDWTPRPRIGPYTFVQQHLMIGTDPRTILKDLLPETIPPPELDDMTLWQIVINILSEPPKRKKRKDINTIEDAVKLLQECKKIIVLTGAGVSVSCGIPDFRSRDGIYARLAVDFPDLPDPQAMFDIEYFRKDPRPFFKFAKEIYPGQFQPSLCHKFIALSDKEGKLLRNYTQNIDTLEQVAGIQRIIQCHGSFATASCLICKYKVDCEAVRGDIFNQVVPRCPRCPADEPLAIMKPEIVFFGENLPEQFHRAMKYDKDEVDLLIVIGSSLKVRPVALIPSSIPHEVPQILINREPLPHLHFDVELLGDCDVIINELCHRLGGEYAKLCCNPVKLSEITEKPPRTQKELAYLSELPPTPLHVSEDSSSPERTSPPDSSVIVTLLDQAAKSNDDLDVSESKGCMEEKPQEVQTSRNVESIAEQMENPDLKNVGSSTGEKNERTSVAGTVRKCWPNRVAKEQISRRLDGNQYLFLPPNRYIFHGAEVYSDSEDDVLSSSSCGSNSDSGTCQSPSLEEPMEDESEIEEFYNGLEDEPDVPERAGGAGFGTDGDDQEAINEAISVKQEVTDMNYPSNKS

[11] = system: Rattus norvegicus; assay: Cardioprotective activity in myocardial ischemia Sprague-Dawley rat model assessed as decrease in ISO-induced ST segment at 50 mg/kg, IG treated for 7 days consecutively followed by ISO administration daily for 2 days consecutively by ECG analysis; type: functional, organism-based; settings: time 9.0 day
[12] = system: H9c2; assay: Cardioprotective activity against CoCl2-induced cellular hypoxia injury in rat H9c2 cells assessed as mitochondrial membrane potential at 50 uM incubated for 24 hrs by JC-1 staining based analysis (reference value: 48.08 %); type: functional
[13] = system: H9c2; assay: Cardioprotective activity against CoCl2-induced cellular hypoxia injury in rat H9c2 cells assessed as reduction in apoptosis at 50 uM incubated for 24 hrs by flow cytometry; type: functional, cell-based
[14] = system: H9c2; assay: Cardioprotective activity against CoCl2-induced cellular hypoxia injury in rat H9c2 cells assessed as reduction in necrosis at 50 uM incubated for 24 hrs by flow cytometry; type: functional, cell-based
[15] = target: T2, NAD-dependent protein deacetylase sirtuin-1 (Rattus norvegicus) (UniProt A0A0G2JZ79); assay: Activation of SIRT1 in CoCl2-induced cellular hypoxia injury in rat H9c2 cells at 50 uM incubated for 24 hrs by Western blot analysis; type: cell-based; settings: filed as activator
T2 sequence (whole entry): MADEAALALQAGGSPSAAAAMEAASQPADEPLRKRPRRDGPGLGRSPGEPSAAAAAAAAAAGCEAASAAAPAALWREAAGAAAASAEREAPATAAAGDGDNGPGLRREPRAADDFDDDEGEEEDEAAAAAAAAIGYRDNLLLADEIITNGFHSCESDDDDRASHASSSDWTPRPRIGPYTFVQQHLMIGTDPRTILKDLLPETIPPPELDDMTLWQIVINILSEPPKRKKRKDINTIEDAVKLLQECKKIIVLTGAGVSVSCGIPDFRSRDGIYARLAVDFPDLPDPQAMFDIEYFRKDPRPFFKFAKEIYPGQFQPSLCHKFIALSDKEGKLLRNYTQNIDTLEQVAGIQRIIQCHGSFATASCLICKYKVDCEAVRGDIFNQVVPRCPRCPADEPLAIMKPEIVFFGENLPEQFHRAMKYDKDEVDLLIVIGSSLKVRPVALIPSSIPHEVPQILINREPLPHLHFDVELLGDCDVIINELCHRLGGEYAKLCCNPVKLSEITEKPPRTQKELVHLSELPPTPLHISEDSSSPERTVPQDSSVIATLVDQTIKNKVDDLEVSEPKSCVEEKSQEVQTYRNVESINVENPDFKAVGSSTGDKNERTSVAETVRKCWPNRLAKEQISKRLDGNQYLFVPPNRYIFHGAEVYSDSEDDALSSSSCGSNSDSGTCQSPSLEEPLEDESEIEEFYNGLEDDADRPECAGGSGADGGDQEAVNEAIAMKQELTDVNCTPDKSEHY

[16] = system: Rattus norvegicus; assay: In vivo activation of SIRT1 in myocardial tissue of myocardial ischemia Sprague-Dawley rat model at 50 mg/kg, IG treated for 7 days consecutively followed by ISO administration daily for 2 days consecutively by Western blot analysis; type: functional, organism-based; settings: time 9.0 day
[17] = system: H9c2; assay: Cardioprotective activity against CoCl2-induced cellular hypoxia injury in rat H9c2 cells assessed as increase in PGC1-alpha level at 50 uM incubated for 24 hrs by Western blot analysis; type: functional, cell-based
[18] = system: Rattus norvegicus; assay: Cardioprotective activity against myocardial ischemia Sprague-Dawley rat model assessed as increase in PGC1-alpha level in myocardial tissue at 50 mg/kg, IG treated for 7 days consecutively followed by ISO administration daily for 2 days consecutively by Western blot analysis; type: functional, organism-based; settings: time 9.0 day
[19] = system: H9c2; assay: Inhibition of apoptosis in CoCl2-induced cellular hypoxia injury in rat H9c2 cells assessed as increase in Bcl-2 level at 5 to 10 uM incubated for 24 hrs by Western blot analysis; type: functional, cell-based; settings: dose 5-10 µM
[20] = system: H9c2; assay: Inhibition of apoptosis in CoCl2-induced cellular hypoxia injury in rat H9c2 cells assessed as increase in caspase-3 level at 5 to 10 uM incubated for 24 hrs by Western blot analysis; type: functional, cell-based; settings: dose 5-10 µM
[21] = system: H9c2; assay: Inhibition of apoptosis in CoCl2-induced cellular hypoxia injury in rat H9c2 cells assessed as decrease in Bax level at 5 to 10 uM incubated for 24 hrs by Western blot analysis; type: functional, cell-based; settings: dose 5-10 µM

| Structure (SMILES) | Activity [1] | viability at 0.625 µM [2] [%] | viability at 1.25 µM [3] [%] | viability at 2.5 µM [4] [%] | viability at 5 µM [5] [%] | viability at 10 µM [6] [%] | Activity [7] | Activity [8] [µM] | Activity [9] | Activity [10] [%] | also measured |
| --- | --- | --- | --- | --- | --- | --- | --- | --- | --- | --- | --- |
| CC(C)(O)[C@H]1CC[C@@](C)([C@H]2CC[C@]3(C)[C@@H]2[C@H](O)C[C@@H]2[C@@]4(C)CC[C@H](OC(=O)CCC(=O)Oc5ccc(-c6nc(=O)ss6)cc5)C(C)(C)[C@@H]4CC[C@]23C)O1 | inactive | 76.4 | 82 | 84.7 | 86.8 | 91.4 | Active | 7 | Dose-dependent-effect | – | – |
| CC(C)(O)[C@@H]1CC[C@@](C)([C@H]2CC[C@]3(C)[C@@H]2[C@H](O)C[C@@H]2[C@@]4(C)CC[C@H](OC(=O)CCC(=O)Oc5ccc(-c6nc(=O)ss6)cc5)C(C)(C)[C@@H]4CC[C@]23C)O1 | inactive | 73.5 | 81.6 | 87.7 | 91 | 92.2 | Active | 10 | Dose-dependent-effect | – | – |
| CC(C)(O)[C@@H]1CC[C@@](C)([C@H]2CC[C@]3(C)[C@@H]2[C@H](O)C[C@@H]2[C@@]4(C)CC[C@H](O)C(C)(C)[C@@H]4CC[C@]23C)O1 | inactive | 70.6 | 72.6 | 74.8 | 79.1 | 81.2 | – | – | – | 123 | – |
| C=CCSSCCC(=O)O[C@H]1CC[C@]2(C)[C@H]3C[C@@H](O)[C@@H]4[C@@H]([C@]5(C)CC[C@@H](C(C)(C)O)O5)CC[C@@]4(C)[C@]3(C)C[C@H](O)[C@H]2C1(C)C | inactive | 74.7 | 74.2 | 79.1 | 89.1 | 95.3 | Active | 17.4 | Dose-dependent-effect | – | – |
| CC(C)(O)[C@@H]1CC[C@@](C)([C@H]2CC[C@]3(C)[C@@H]2[C@H](O)C[C@@H]2[C@@]4(C)CC[C@H](OC(=O)CCC(=O)Oc5ccc(-c6nc(=O)ss6)cc5)C(C)(C)[C@@H]4[C@@H](O)C[C@]23C)O1 | inactive | 70.1 | 77.4 | 83.7 | 89.1 | 94.2 | Active | 10.5 | Dose-dependent-effect | – | – |
| Oc1ccc(/C=C/c2cc(O)cc(O)c2)cc1 [RESVERATROL] | – | 58.3 | 58.8 | 64.1 | 68.5 | 76.1 | – | – | – | 158 | Activity [11]: Active; Activity [12]: 73.27%; Activity [13]: Active; Activity [14]: Active; Activity [15]: Active; Activity [16]: Active; Activity [17]: Active; Activity [18]: Active; inhibition [19]: Active; inhibition [20]: Active; inhibition [21]: Active |
